Experimental data from PubChem BioAssay (NCI).
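1) Cells in 96-well plates. 2) Compound, 48 h, 5 concentrations. 3) Linear interpolation between surrounding doses. 4) Unreached endpoint = highest concentration. TGI is the concentration that stops growth completely.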

What was measured:
Experiment in all cases: NCI anticancer screen, dose series, 48 h
[1] = system: HCT-15 colon
[2] = system: SR leukemia
[3] = system: HL-60(TB) leukemia
[4] = system: RPMI-8226 leukemia
[5] = system: HS 578T breast
[6] = system: MDA-MB-231 breast
[7] = system: PC-3 prostate
[8] = system: T-47D breast
[9] = system: HOP-62 NSCLC
[10] = system: CCRF-CEM leukemia
[11] = system: NCI-H460 lung
[12] = system: SF-268 CNS
[13] = system: UACC-257 melanoma
[14] = system: SNB-19 CNS
[15] = system: SN12C renal
[16] = system: MDA-N
[17] = system: SK-MEL-5 melanoma
[18] = system: SK-OV-3 ovarian
[19] = system: TK-10 renal
[20] = system: U251 CNS
[21] = system: NCI-H522 lung
[22] = system: IGROV1 ovarian
[23] = system: CAKI-1 renal
[24] = system: NCI/ADR-RES ovarian
[25] = system: HT29 colon
[26] = system: SW-620 colon
[27] = system: MCF7 breast
[28] = system: MDA-MB-435
[29] = system: NCI-H23 lung
[30] = system: A549 NSCLC
[31] = system: OVCAR-4 ovarian
[32] = system: MALME-3M melanoma
[33] = system: BT-549 breast
[34] = system: DU-145 prostate
[35] = system: 786-0 renal
[36] = system: OVCAR-3 ovarian
[37] = system: SF-539 CNS
[38] = system: OVCAR-5 ovarian
[39] = system: SK-MEL-2 melanoma
[40] = system: SK-MEL-28 melanoma
[41] = system: COLO 205 colon
[42] = system: OVCAR-8 ovarian
[43] = system: EKVX NSCLC
[44] = system: HCT-116 colon
[45] = system: SF-295 CNS
[46] = system: MOLT-4 leukemia
[47] = system: LOX IMVI melanoma
[48] = system: SNB-75 CNS
[49] = system: KM12 colon
[50] = system: RXF 393 renal
[51] = system: A498 renal
[52] = system: NCI-H226 lung
[53] = system: UACC-62 melanoma
[54] = system: ACHN renal
[55] = system: M14 melanoma
[56] = system: HOP-92 NSCLC

Q: `Cc1ccc(S(=O)(=O)NCc2cccc([N+](=O)[O-])c2)cc1` was tested. Which TGI [1] did it give?
A: > 100 µM

Q: And the TGI [2]?
A: > 100 µM

Q: And the TGI [3]?
A: 90.3 µM

Q: And the TGI [4]?
A: > 100 µM

Q: And the TGI [5]?
A: > 100 µM

Q: What about the TGI [6] of the same molecule?
A: > 100 µM

Q: What about the TGI [7] of the same molecule?
A: > 100 µM

Q: What about the TGI [8] of the same molecule?
A: > 100 µM

Q: What about the TGI [9] of the same molecule?
A: > 100 µM

Q: What about the TGI [10] of the same molecule?
A: > 100 µM

Q: What about the TGI [11] of the same molecule?
A: > 100 µM

Q: What about the TGI [12] of the same molecule?
A: > 100 µM

Q: And the TGI [13]?
A: > 100 µM

Q: And the TGI [14]?
A: > 100 µM

Q: What about the TGI [15] of the same molecule?
A: > 100 µM

Q: And the TGI [16]?
A: > 100 µM

Q: What about the TGI [17] of the same molecule?
A: > 100 µM

Q: What about the TGI [18] of the same molecule?
A: > 100 µM

Q: What about the TGI [19] of the same molecule?
A: > 100 µM

Q: And the TGI [20]?
A: > 100 µM

Q: What about the TGI [21] of the same molecule?
A: > 100 µM

Q: And the TGI [22]?
A: > 100 µM

Q: And the TGI [23]?
A: > 100 µM

Q: And the TGI [24]?
A: > 100 µM

Q: And the TGI [25]?
A: > 100 µM

Q: What about the TGI [26] of the same molecule?
A: > 100 µM

Q: What about the TGI [27] of the same molecule?
A: > 100 µM

Q: What about the TGI [28] of the same molecule?
A: > 100 µM

Q: What about the TGI [29] of the same molecule?
A: > 100 µM

Q: What about the TGI [30] of the same molecule?
A: > 100 µM

Q: And the TGI [31]?
A: > 100 µM

Q: And the TGI [32]?
A: > 100 µM

Q: What about the TGI [33] of the same molecule?
A: > 100 µM

Q: And the TGI [34]?
A: > 100 µM

Q: What about the TGI [35] of the same molecule?
A: > 100 µM

Q: And the TGI [36]?
A: > 100 µM

Q: What about the TGI [37] of the same molecule?
A: > 100 µM

Q: And the TGI [38]?
A: > 100 µM

Q: What about the TGI [39] of the same molecule?
A: > 100 µM

Q: And the TGI [40]?
A: > 100 µM

Q: What about the TGI [41] of the same molecule?
A: > 100 µM

Q: What about the TGI [42] of the same molecule?
A: > 100 µM

Q: And the TGI [43]?
A: > 100 µM

Q: What about the TGI [44] of the same molecule?
A: > 100 µM

Q: What about the TGI [45] of the same molecule?
A: > 100 µM

Q: And the TGI [46]?
A: > 100 µM

Q: What about the TGI [47] of the same molecule?
A: > 100 µM

Q: What about the TGI [48] of the same molecule?
A: > 100 µM

Q: What about the TGI [49] of the same molecule?
A: > 100 µM

Q: And the TGI [50]?
A: > 100 µM

Q: What about the TGI [51] of the same molecule?
A: > 100 µM

Q: And the TGI [52]?
A: > 100 µM

Q: What about the TGI [53] of the same molecule?
A: > 100 µM

Q: What about the TGI [54] of the same molecule?
A: > 100 µM

Q: And the TGI [55]?
A: > 100 µM

Q: And the TGI [56]?
A: > 100 µM
